Test system: microorganisms
Experiment: Morphology, biofilm and growth disrupting peptides (Table 5)
Type: cell-based
Parameters: key: A: Peptide aggregates; B: Less hyphal formation; Clumps; Diffuse clumps and small polyps; F: Diffuse growth; H: Thin; I: Growth inhibition; Microcolony formation; Rippled; Small polyps; Thick; W: Halo formation on top, microlonies on bottom
From the text: In certain embodiments peptides that induce alterations in phenotype or other biological activities can also be used as antimicrobial effector moieties.

DLLKSLLGQDGAKNDEIIEFIKIIMEK [PF-591]
Organism, effect (C. jejuni): C. jejuni (C)
Organism, effect (E. faecalis): E. faecalis (A)
Organism, effect (S. pneumoniae): S. pneumoniae (R)

PF-582 (NLKTIEKECPFCNNKMDIKLKD; Peptide with targeting and/or antimicrobial activity)
Organism, effect (E. faecalis): E. faecalis (A)

PF-574 (LVKSGKLESPYEHSEHLTLSQEKGLE; Peptide with targeting and/or antimicrobial activity)
Organism, effect (B. subtilis): B. subtilis (D)

PF-468 (EDNKDKKDKKDK; Peptide with targeting and/or antimicrobial activity)
Organism, effect (S. pneumoniae): S. pneumoniae (H)

PF-C089 (MPKRHYYKLEAKALQFGLPFAYSPIQLLK; Peptide with targeting and/or antimicrobial activity)
Organism, effect (P. gingivalis): P. gingivalis (R)

PF-339 (KKIDILINKYMYLSK; Peptide with targeting and/or antimicrobial activity)
Organism, effect: B. subtilis (B. subtilis): B. subtilis (C)
Organism, effect: S. epidermidis (S. epidermidis): S. epidermidis (C)

PF-264 (MQSLSNRQSLIASYILMGIFLSFGYPPASLSKFFCRLSHL; Peptide with targeting and/or antimicrobial activity)
Organism, effect: M. luteus (M. luteus): M. luteus (H)

PF-571 (SDLLYYPNENREDSPAGVVKEVKE; Peptide with targeting and/or antimicrobial activity)
Organism, effect (B. subtilis): B. subtilis (D)

PF-536 (MEPIPHIMIIANQIGIIIEKA; Peptide with targeting and/or antimicrobial activity)
Organism, effect (E. coli): E. coli (R)
Organism, effect (E. faecalis): E. faecalis (C)
Organism, effect (MRSA): MRSA (C)
Organism, effect (P. aeruginosa): P. aeruginosa (H)
Organism, effect (S. epidermidis): S. epidermidis (C)
Organism, effect (S. pneumoniae): S. pneumoniae (M)

PF-C214 (GGHKQLVIEPLVSQ; Peptide with targeting and/or antimicrobial activity)
Organism, effect (F. nucleatum): F. nucleatum (T)

PF-342 (AFSGVYKTLIVYTRRK; Peptide with targeting and/or antimicrobial activity)
Organism, effect: B. subtilis (B. subtilis): B. subtilis (C)
Organism, effect: S. epidermidis (S. epidermidis): S. epidermidis (C)

PF-318 (MGRHLWNPSYFVATVSENTEEQIRKYINNQKKQVK; Peptide with targeting and/or antimicrobial activity)
Organism, effect: B. subtilis (B. subtilis): B. subtilis (C)
Organism, effect: S. epidermidis (S. epidermidis): S. epidermidis (C)

PF-419 (VVTGKVGSLPQIK; Peptide with targeting and/or antimicrobial activity)
Organism, effect: S. pneumoniae (S. pneumoniae): S. pneumoniae (H)

PF-561 (ESLEADVQAELDTEAAKYPALPASF; Peptide with targeting and/or antimicrobial activity)
Organism, effect (B. subtilis): B. subtilis (D)
Organism, effect (MRSA): MRSA (M)

PF-290 (MVHDMTNGTLIIVKH; Peptide with targeting and/or antimicrobial activity)
Organism, effect: S. epidermidis (S. epidermidis): S. epidermidis (C)

KTPNDKIHKTIIIKHIIL [PF-533]
Organism, effect (E. coli): E. coli (R)
Organism, effect (E. faecalis): E. faecalis (C)
Organism, effect (MRSA): MRSA (H)
Organism, effect (S. epidermidis): S. epidermidis (H)
Organism, effect (S. pneumoniae): S. pneumoniae (C)

PF-534 (KYFHLFYHNIIHYSKQHLSLKVDFKN; Peptide with targeting and/or antimicrobial activity)
Organism, effect (E. coli): E. coli (R)
Organism, effect (E. faecalis): E. faecalis (C)
Organism, effect (MRSA): MRSA (C)
Organism, effect (S. epidermidis): S. epidermidis (C)
Organism, effect (S. pneumoniae): S. pneumoniae (R)

PF-310 (GVALIGTILVPLLSGLFG; Peptide with targeting and/or antimicrobial activity)
Organism, effect: S. epidermidis (S. epidermidis): S. epidermidis (C)

PF-296 (GAFGMPSIKTNTICGEKGKFISACDAWLSNLK; Peptide with targeting and/or antimicrobial activity)
Organism, effect: B. subtilis (B. subtilis): B. subtilis (C)
Organism, effect: S. epidermidis (S. epidermidis): S. epidermidis (C)

PF-565 (RAEAEAQRQAEADAKRKAEEAARL; Peptide with targeting and/or antimicrobial activity)
Organism, effect (B. subtilis): B. subtilis (D)
Organism, effect (MRSA): MRSA (C)

PF-303 (EYPWSWISEPWPWDKSFYK; Peptide with targeting and/or antimicrobial activity)
Organism, effect: B. subtilis (B. subtilis): B. subtilis (C)

Source: US20110039763A1, “TARGETED ANTIMICROBIAL MOIETIES” (C3 JIAN, INC., priority 2009, published 2011)
